In patent US4347319A, “Microbiological epoxidation process” (priority 1980, dated 1982):

What follows are molecules tested on Methylococcus capsulatus (CRL M1) NRRL B-11,219 (assay: Oxidation by washed cell suspensions of methane-grown cells). Details: methane-grown cell-suspension; pH 7.0; 3° C.
Assay type: cell-based
Experimental: (§1) The pH of the nutrient medium was adjusted to 7.0 by the addition of acid or base and 50 ml samples of the nutrient medium were charged into a plurality of 300 ml shaker flasks. The shaker flasks were inoculated with an inoculating loop of cells from an agar plate containing homogeneous colonies of the microorganisms on the plate (the purity of the isolates was confirmed by microscopic examination. The isolates had been maintained on agar plates under an atmosphere of methane and air having a 1:1 v/v gas ratio which had been transferred evey two weeks. The gaseous phase of the inoculated flasks was then replaced with a gas mixture comprised of methane and air having a ratio of 1:1 on a v/v basis. The inoculated flasks were sealed air tight and were incubated on a rotary shaker of orbital radius 2.5 cm at 250 rpm and at 30° C. for two days until turbidity in the medium had developed.
(§2) The cells were harvested by centrifugation at 10,000×g. at 4° C. for 30 minutes. The cell pellet was washed twice with a 0.15 M phosphate buffer at a pH of 7.0 (containing 0.002 M MgCl2). The washed cells were then suspended in a 0.15 M phosphate buffer at pH 7.0.
(§3) A 0.5 ml sample of each washed cell suspension (2 mg cells) was put into 10 ml vials at 4° C. which were sealed with a rubber cap. The gaseous phase of the vials was removed with vacuum and then was replaced with a gas mixture of the oxidative substrate (e.g., methane) and oxygen at a 1:1 v/v ratio. The vials were then incubated at 30 ° C. on a rotary shaker at 300 rpm. Samples of product (3 μl) were withdrawn periodically with a microsyringe and the products were analyzed by gas chromatography (ionization flame detector column).
(§4) The newly discovered and isolated microorganism strains of the present invention were each grown aerobically in the presence of methane in the manner described above. The methane-grown microbial cells were then washed, recovered and put to use in oxidizing an oxidative substrate by the procedure described above except in the case of a liquid substrate 10 μl of the substrate were used.
`CC` [Ethane] was tested, and the “Conversion Rate to Ethanol” value was 2.0 μmoles/hr./mg./protein.

What follows are molecules tested on Methylobacter vinelandii (CRL M5Y) NRRL B-11,218 in the same assay as above. Details: methane-grown washed cells.
Assay type: cell-based
Experimental: as §1, §2, §3, §4
In the case of `C1CCCCC1` [Cyclohexane], the “conversion rate cyclohexane to cyclohexanol” value was 1.5 μ moles/2 hr./mg. protein. `c1ccccc1` [benzene] was tested, and the “oxidative conversion” value was “no oxidative conversion was detected”. `Cc1ccccc1` [toluene] was tested, and the “oxidative conversion” value was “no oxidative conversion was detected”.

Each molecule was assayed on purified secondary alcohol dehydrogenase (SADH) from Pseudomonas sp. ATCC 21439 (assay: Effect of metal-chelating agents and thio reagents on purified SADH). Details: not given.
Assay type: biochemical
Experimental: Secondary alcohol dehydrogenase (SADH) from an obligate methanol utilizer, Pseudomonas sp. ATCC 21439 was purified as follows. […] 0.05 M sodium phosphate buffer, pH 7.0 with 0.5 mM dithiothretol (buffer A) and were disrupted sonically (5×1 min.). The crude extract was separated by centrifugation. The crude extract was heat-treated at 50° C. in a water bath for 10 minutes. The resulting precipitate was removed by centrifugation. To the supernatant solution, 25 ml of protamine sulfate solution (2% solution in 0.1 M Tris base) was added dropwise with continuous stirring. After standing for 30 minutes, the extract was centrifuged. The supernatant solution was fractionated with solid ammonium sulfate. […] This DEAE-cellulose eluate was concentrated by ammonium sulfate fractionation. Material precipitating between 30 and 50% ammonium sulfate saturation was collected by centrifugation and dialyzed overnight against A. This fraction was further washed and filtered through an Amicon unit with XM 50 membrane. The concentrated fraction (6 ml) inside the Amicon unit was applied to an Affi-Gel Blue column (0.8 cm×18 cm) which had been equilibrated with buffer A for affinity chromatography. The column was washed overnight with buffer A (0.18 ml./min.) and then was eluted with buffer A containing 5 mM NAD. Each 1 ml. fraction was collected.
The purified secondary alcohol dehydrogenase enzyme (SADH) may be used directly for converting C3 -C6 secondary alcohols to the corresponding methyl ketones by the procedures described above; however, a source of NAD^+ must be added to the reaction medium. One can determine the NAD-linked secondary alcohol dehydrogenase activity with a fluorescence spectrophotometer (Perkin Elmer, Model MPF 44A) by following the formation of reduced NAD (Ex 340 nm, Em 460 nm). The assay system (3 ml.) will typically contain: sodium phosphate buffer pH 7.0, 150 μmol; NAD 1.0 μmol; a given amount of enzyme preparation; and 20 μmol secondary alcohol. The reaction is started by the addition of secondary alcohol. One unit of SADH enzyme activity represents the reduction of one nmole NAD per minute.
The effect of metal-chelating agents and chioreagents on the activity of the purified SADH enzyme were studied. […] The possibility of ethanol or n-propanol as an inhibitor was studied.
`O=C(O)CN(CCN(CC(=O)O)CC(=O)O)CC(=O)O` [EDTA] was tested, and the “% inhibition of SADH activity” value was 63%. In the case of `O=C(O)CI` [iodoacetic acid], the “% inhibition of SADH activity” value was 0%. For `CCCO` [propan-1-ol], the “inhibition of SADH activity” value was “did not inhibit”.

Same assay, conditions: final concentration of 1 mM; measured spectrofluorometrically
For `O=C(O)c1cc(SSc2ccc([N+](=O)[O-])c(C(=O)O)c2)ccc1[N+](=O)[O-]` [5,5'-dithiobis(2-nitrobenzoic acid)], the “% inhibition of SADH activity” value was 100%. In the case of `[Co+2]` [Co^++], the “% inhibition of SADH activity” value was 0%. With `[Mg+2]` [Mg^++] the “% inhibition of SADH activity” value was 0%. With `[Mn+2]` [Mn^++] the “% inhibition of SADH activity” value was 0%. `CCN1C(=O)C=CC1=O` [N-ethylmalemide] was tested, and the “% inhibition of SADH activity” value was 6%. `[N-]=[N+]=[N-]` [Sodium azide] was tested, and the “% inhibition of SADH activity” value was 10%. With `[Zn+2]` [Zn^++] the “% inhibition of SADH activity” value was 0%. For `[Cu+2]` [cupric], the “% inhibition of SADH activity” value was 25%. In the case of `[Fe+3]` [ferric], the “% inhibition of SADH activity” value was 35%. In the case of `[Fe+2]` [ferrous], the “% inhibition of SADH activity” value was 50%. `[Ni+2]` [nickel] was tested, and the “% inhibition of SADH activity” value was 20%.

These molecules were tested on purified secondary alcohol dehydrogenase (SADH) from Pseudomonas sp. ATCC 21439 (assay: Kinetics and substrate specificity of purified SADH). Details: not given.
Assay type: biochemical
For `O=Cc1ccccc1` [benzaldehyde], the “oxidation by SADH” value was “not oxidized”. With `CCC(O)CO` (centres unmarked) [butane 1,2-diol] the “oxidation by SADH” value was “not oxidized”. With `C=O` [formaldehyde] the “oxidation by SADH” value was “not oxidized”. For `CC(C)CO` [isobutanol], the “oxidation by SADH” value was “not oxidized”. In the case of `Oc1ccccc1` [phenol], the “oxidation by SADH” value was “not oxidized”. For `O=C(O)CCC(=O)O` [succinic acid], the “oxidation by SADH” value was “not oxidized”.

Same assay, conditions: 2-butanol = 100%
In the case of `CCC=O` [propanal], the “relative percent rate of oxidation” value was 2%.

The molecules below were run against T1, cell fractions of Methylosinus sp. (CRL-15, NRRL B-11,202) (Methylosinus trichosporium, UniProt Q50541+Q9KX50+Q9KX51) (assay: Oxidation by cell fractions P(40), P(80), S(80)). Details: P(40) particulate fraction; alkene to epoxide, alkane to alcohol; 30° C.
T1 sequence (Q9KX50 40-431): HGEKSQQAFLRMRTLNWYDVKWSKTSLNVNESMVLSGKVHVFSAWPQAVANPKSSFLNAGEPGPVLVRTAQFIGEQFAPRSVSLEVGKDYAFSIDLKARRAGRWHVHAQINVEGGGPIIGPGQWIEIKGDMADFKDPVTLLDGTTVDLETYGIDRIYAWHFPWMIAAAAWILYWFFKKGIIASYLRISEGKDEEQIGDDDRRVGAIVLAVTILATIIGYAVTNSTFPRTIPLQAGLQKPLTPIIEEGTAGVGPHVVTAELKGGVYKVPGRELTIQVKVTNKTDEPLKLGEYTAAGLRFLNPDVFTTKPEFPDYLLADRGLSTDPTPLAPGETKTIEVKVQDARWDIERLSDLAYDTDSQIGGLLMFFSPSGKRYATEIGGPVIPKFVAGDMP
T1 sequence (Q50541 1-252): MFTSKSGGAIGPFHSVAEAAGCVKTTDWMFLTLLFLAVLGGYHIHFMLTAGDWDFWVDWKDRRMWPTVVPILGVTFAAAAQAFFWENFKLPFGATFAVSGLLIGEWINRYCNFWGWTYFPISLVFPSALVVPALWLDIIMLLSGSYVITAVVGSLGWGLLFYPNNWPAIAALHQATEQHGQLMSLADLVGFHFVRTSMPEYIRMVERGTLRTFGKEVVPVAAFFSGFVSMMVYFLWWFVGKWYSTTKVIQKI
T1 sequence (Q9KX51 1-256): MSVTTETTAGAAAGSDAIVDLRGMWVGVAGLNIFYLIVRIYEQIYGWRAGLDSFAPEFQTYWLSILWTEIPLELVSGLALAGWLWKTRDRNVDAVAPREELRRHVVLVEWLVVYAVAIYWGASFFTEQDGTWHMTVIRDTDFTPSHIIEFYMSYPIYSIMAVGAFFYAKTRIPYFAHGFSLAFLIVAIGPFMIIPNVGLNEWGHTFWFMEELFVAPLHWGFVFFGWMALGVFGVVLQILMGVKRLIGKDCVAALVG
Assay type: biochemical
Experimental: Cells were washed twice with 25 mM potassium phosphate buffer, pH 7.0 containing 5 mM MgCl2. Cells were suspended in the same buffer. The cell suspensions at 4° C. were disintegrated by a single passage through a French Pressure cell (15,000 lb./in.^2) and centrifuged at 5000×g. for 15 min. to remove unbroken bacteria. The supernatant solution (crude extract) was then centrifuged at 40,000×g. for 30 min., yielding particulate P(40) and soluble S(40) fractions. The S(40) fraction was subsequently centrifuged at 80,000×g. for 60 min., yielding particulate P(80) and soluble S(80) fractions. The particulate fractions [P(40) and P(80)] were suspended in 25 mM potassium phosphate buffer, pH 7.0, containing 5 mM MgCl2 and homogenized at 4° C.
(§5) The oxidation of methane and propylene by particulate [(P)40 and (P)80] fractions and soluble [S(80)] fraction was measured at 30° C. by estimating the production of methanol and propylene oxide, respectively. The reaction mixtures contained in […]: 150 mM potassium phosphate buffer, pH 7.0 containing 5 mM MgCl2 b, 0.6 ml; 10μ moles NADH, and cellular fraction.
(§6) Reaction mixtures were contained in 10 ml vials at 4° C. Vials were sealed with rubber caps. The gaseous phase in the vials was removed using vacuum and then was replaced with a gas mixture of methane or propylene and oxygen at a 1:1, v/v ratio. Oxidation of other gaseous n-alkanes and n-alkanes was examined as described above. For liquid substrates, 10 μl of substrate was used directly.
The products of epoxidation of n-alkenes and hydroxylation of n-alkanes were assayed by flame ionization gas chromatography using a stainless steel column (12'×1/8") packed with 10% Carbowax 20 M on 80/100 Chromosorb W and Porapak Q column. The column temperature was maintained isothermally at 120° C. The carrier gas flow rate was 30 ml/min. of helium. The various products were identified by retention time comparisons and co-chromatography with authentic standards.
Specific activities were expressed as μ moles of products formed per hour per mg. protein. Concentrations of protein in various fractions were determined by the method of Lowry et al., J. Biol. Chem., 193: 265-275 (1951).
`CC` [Ethane] was tested, and the “Rate of Product Formation” value was 3.2 μ moles/hr/mg of protein.

What follows are molecules tested on purified secondary alcohol dehydrogenase from Pichia sp. NRRL Y-11,328 (assay: Substrate specificity, electron acceptor and stoichiometry of purified yeast SADH). Details: not given.
Assay type: biochemical
In the case of cytochrome c, the “electron acceptor / carrier” value was “could not act as electron carrier”.

Same assay, conditions: examined spectrophotometrically
In the case of `CC(O)CO` (centres unmarked) [1,2-propandiol], the “oxidation by the purified enzyme” value was “not oxidized”. `CCCCCC(C)O` (centres unmarked) [2-Heptanol] was tested, and the “oxidation by the purified enzyme” value was “not oxidized”. `CCCCCCC(C)O` (centres unmarked) [2-octanol] was tested, and the “oxidation by the purified enzyme” value was “not oxidized”. For `CCCCO` [butan-1-ol], the “oxidation by the purified enzyme” value was “not oxidized”. With `CCC(O)CO` (centres unmarked) [butane 1,2-diol] the “oxidation by the purified enzyme” value was “not oxidized”. With `CC(O)CCO` (centres unmarked) [butane 1,3-diol] the “oxidation by the purified enzyme” value was “not oxidized”. For `CCO` [ethanol], the “oxidation by the purified enzyme” value was “not oxidized”. `CO` [methanol] was tested, and the “oxidation by the purified enzyme” value was “not oxidized”. `CCCCCO` [pentan-1-ol] was tested, and the “oxidation by the purified enzyme” value was “not oxidized”. With `CCCO` [propan-1-ol] the “oxidation by the purified enzyme” value was “not oxidized”.

What follows are molecules tested on P(40) particulate fraction of Methylosinus sp. (CRL-15, NRRL B-11,202) (assay: Effect of metals on propylene epoxidation and methane hydroxylation). Details: metal 10^-3 M; P(40) fraction; control 4.0.
Assay type: biochemical
Experimental: as §5, §6
Since the methane mono-oxygenase from methane-utlizing bacteria is a copper or iron-containing protein (Tonge et al., J. Biochem., 161: 333-344 (1977)), we have examined the effect of copper and iron salts on the oxidation of methane and propylene by the P(40) particulate fraction of Methylosinus sp. (CRL-15, NRRL B-11,202). The rate of hydroxylation of methane to methanol and epoxidation of propylene to propylene oxide was increased twofold in the presence of added copper salts (Table XII).
In the case of `[Cl][Cu]` [Cuprous Chloride], the “Methane-Oxidizing Activity” value was 7.2 μmoles/hr/mg protein. With `[Cl][Fe]([Cl])[Cl]` [Ferric Chloride] the “Methane-Oxidizing Activity” value was 4.8 μmoles/hr/mg protein. For Ferrous Sulfate, the “Methane-Oxidizing Activity” value was 4.8 μmoles/hr/mg protein.

Same assay, conditions: metal 10^-3 M; P(40) fraction; control […]
For `[Cl][Cu]` [Cuprous Chloride], the “Propylene-Oxidizing Activity” value was 9.2 μmoles/hr/mg protein. With `[Cl][Fe]([Cl])[Cl]` [Ferric Chloride] the “Propylene-Oxidizing Activity” value was 5.8 μmoles/hr/mg protein. With Ferrous Sulfate the “Propylene-Oxidizing Activity” value was 5.9 μmoles/hr/mg protein.

Each molecule was assayed on Methylosinus trichosporium OB3b (NRRL B-11,196) (assay: Oxidation by cell suspensions of methane-grown cells). Details: methane-grown cell-suspension; pH 7.0; 3° C.
Assay type: cell-based
With `CC` [Ethane] the “Conversion Rate to Ethanol” value was 1.3 μmoles/hr./mg./protein.
